These results are taken from US7585851B2, “3′-prodrugs of 2′-deoxy-β-L-nucleosides” (priority 2000, dated 2009).

What is called EC50 is the concentration needed to bring the measured effect to its halfway point. Broadly, the Tmax is the time at which the peak concentration occurs. Broadly, the EC90 is the concentration at which the effect reaches the 90% level.

“And” between values parts separate entries of the source, which are not always exact repeats. Identical values can stand only once. “Also recorded” adds a separate entry of the source. Like-named read-outs stand apart in the source and are kept apart here. A value given as a limit tells only on which side of the number the result lay.

Data set [1] deals with RSV type A. Put plainly: Antiviral panel: RSV type A (MA-104). Format: cell-based.
Data set [2] concerns KB, human nasopharyngeal carcinoma.
The format of data set [3] is in vivo, rhesus monkey. On the procedure:
The pharmacokinetics of L-dC following oral administration in the rhesus monkey was determined. […] Blood samples for pharmacokinetic analysis were collected pre-dose and at 0.25, 0.5, 1, 2, 3, 6, 8 and 24 hours after dosing. Urine samples for pharmacokinetic analyses were collected via pan catch pre-dose and over the following intervals post-dose: 0-2, 2-4, 4-8 and 8-12 hours, and then at 12-hour intervals thereafter through 336 hours post-dose. The drug was detected and concentration determined using a reverse-phase HPLC technique.

The subject of data set [4] is Influenza B. Put plainly: Antiviral panel: Influenza B (MDCK). It is filed as cell-based.
For data set [5] the following is noted: monkey, in vivo, 2000 mg/kg.
The test system of data set [6] is Escherichia coli strain WP2uvrA. Put plainly: Plate incorporation mutation assay, E. coli. Conditions: with and without rat liver S-9; up to 5000 mg/plate, 5000 μg/plate. On the procedure: L-dC was tested for its potential to cause mutation at the histidine operon of Salmonella typhimurium strains TA98, TA100, TA1535, and TA1537 and at the tryptophan opeton of Escherichia coli strain WP2uvrA. L-dC at concentrations of […] plus positive and negative controls were tested. […] After incubation for approximately 68 hours, L-dC and controls were evaluated for the number of revertants per plate and integrity of the background microcolony lawn.

For data set [7], the system named is HSV-1. Put plainly: Antiviral panel: HSV-1 (HFF). It is filed as cell-based.
The test system of data set [8] is HBV. Put plainly: Anti-HBV activity in HBV-expressing 2.2.15 cells (HBV DNA reduction). To be noted: 2.2.15 cells.
For data set [9], the system named is Measles. Put plainly: Antiviral panel: Measles (CV-1). It is filed as cell-based.
Data set [10] deals with WHV. Put plainly: Woodchuck model of chronic hepatitis B infection, 12 weeks oral. To be noted: 1 mg/kg/day orally, woodchucks. How it is done: WHV DNA and body weight were measured on Days 0, 1, 3, 7, 14, 21, 28, 42, 56, and 84 as well as on post-treatment Days 7, 14, 21, 28, 42, 56, 70, and 84. WHV DNA levels were determined by quantitative PCR. Appropriate samples for hematology, serum chemistries, WHV serology, and liver biopsy were collected pretreatment and on Day 84.

Data set [11] has as its system MA-104, rhesus monkey kidney epithelial cells.
Data set [12] deals with DHBV. Put plainly: DHBV DNA synthesis in primary duck hepatocyte cultures. Conditions: primary duck hepatocytes (PDH). It is filed as cell-based, duck hepatitis B virus.
For data set [13], the system named is Rhinovirus type 5. Put plainly: Antiviral panel: Rhinovirus type 5 (KB). It is filed as cell-based.
Data set [14] deals with CV-1, African green monkey kidney fibroblast cells.
Data set [15] relates to HCMV. Put plainly: Antiviral panel: HCMV (HFF). It is filed as cell-based.
Setting [16] is: L-dC 10 mg/kg oral, rhesus monkey.

For the compound `Nc1ccn([C@@H]2C[C@@H](O)[C@H](CO)O2)c(=O)n1` [L-dC, 2′-deoxy-β-L-cytidine], the 50% effective concentration (EC50) in data set [1] was greater than 100 µM; in data set [4], greater than 100 µM; in data set [7] it was greater than 100 µg/mL; in [8] (read-out: EC50 for reduction in extracellular HBV DNA) it was 0.24 µM; in data set [8] (read-out: EC50 for reduction of intracellular HBV DNA replicative intermediates (RI)) it was 0.51 µM and 0.5 µM; in data set [9], greater than 100 µM. In addition, the half-maximal effective concentration (EC50) in [12] is 0.87 µM; in data set [13], greater than 100 µM; in data set [15], greater than 100 µg/mL. Also, the CC50 in data set [2], in data set [11] and in data set [14] was greater than 100 µM throughout. Also, the time to peak (Tmax) in data set [3] (setting [16]) is 0.83 h. This compound registered a renal clearance in data set [3] (setting [16]) of 4.55 mL/min/kg. For the same compound, the t1/2 in data set [3] (setting [16]) worked out at 3.34 h. The compound further came in with an oral bioavailability in data set [3] (L-dC oral, rhesus monkey) of roughly 16%. Moreover, the “administered oral dose recovered in urine” value in data set [3] (after 48 hours) is on record as 15%; in [3] (within 8 hours), “Approximately 8.5%”. Also, the “share of drug excreted / recovered dose in urine, by analyte” value in data set [3] (oral L-dC, analyte = label) is roughly 77%. Moreover, in data set [5], the “estimated terminal phase mean half-lives” value was 4 to 5 h. Besides, the mutagenicity entry in data set [6] is given as “no evidence of mutagenicity; also recorded: not mutagenic”. Further, the EC90 in [8] (10-fold reduction of HBV virion DNA levels (Table 25)) is 1.1 ± 0.1 µM; in data set [8] (read-out: EC90 against HBV replication (extracellular HBV DNA)), 1.07 µM and 1.06 µM. The “end-of-treatment liver biopsy histomorphology” value in data set [10] is on record as “no histomorphological evidence of fatty changes; also recorded: no evidence of fatty change”.
